Results on 52 molecules are retold here after ChEMBL document CHEMBL5390237, “Discovery of Selective Histone Deacetylase 1 and 2 Inhibitors: Screening of a Focused Library Constructed by Click Chemistry, Kinetic Binding Analysis, and Biological Evaluation” (J Med Chem, 2023).

One test deals with T1, Histone deacetylase 2 (Homo sapiens, UniProt Q92769). The settings on record: Sf9, time 60.0 min.
T1 sequence (Q92769 whole entry): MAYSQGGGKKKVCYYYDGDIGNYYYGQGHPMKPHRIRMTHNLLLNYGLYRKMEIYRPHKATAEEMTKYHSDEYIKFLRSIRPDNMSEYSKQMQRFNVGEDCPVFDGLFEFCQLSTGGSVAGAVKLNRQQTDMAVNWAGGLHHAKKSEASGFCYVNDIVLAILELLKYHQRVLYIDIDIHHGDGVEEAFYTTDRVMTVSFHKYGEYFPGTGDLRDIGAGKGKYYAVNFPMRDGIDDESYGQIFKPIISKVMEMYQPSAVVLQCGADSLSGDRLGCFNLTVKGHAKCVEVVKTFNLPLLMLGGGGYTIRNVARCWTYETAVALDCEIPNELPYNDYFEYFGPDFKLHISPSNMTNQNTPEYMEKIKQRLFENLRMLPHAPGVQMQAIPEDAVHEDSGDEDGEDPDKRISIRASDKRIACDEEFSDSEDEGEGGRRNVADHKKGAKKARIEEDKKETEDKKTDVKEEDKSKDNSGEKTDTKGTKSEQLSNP
With `Nc1ccccc1NC(=O)c1ccc(CNC(=O)OCc2cccnc2)cc1`, the Kdiss stood at 5e-05 s⁻¹.

For `CC(=O)Nc1ccc(C(=O)Nc2cc(-c3cccs3)ccc2N)cc1`, the Kdiss came to 6.67e-05 s⁻¹.

The next test deals with T1, Histone deacetylase 2. The settings on record: Sf9, time 60.0 min. This is another data set of the same source.
With `Nc1ccccc1NC(=O)c1ccc(CNC(=O)OCc2cccnc2)cc1`, the ka stood at 7670 M⁻¹ s⁻¹.

`CC(=O)Nc1ccc(C(=O)Nc2cc(-c3cccs3)ccc2N)cc1` returned a ka of 13300 M⁻¹ s⁻¹.

The target in a further test is T1, Histone deacetylase 2. Description: Inhibition of full-length recombinant human C-terminal GST tagged HDAC2 expressed in Sf9 insect cells using aminoluciferin peptide substrate at 100 nM preincubated for 3 hrs followed by substrate addition and measured after 30 mins by HDAC-Glo I/II chemiluminescence assay. Particulars: time 3.5 hrs.
Turning to `Nc1ccc(-c2ccc(F)cc2)cc1NC(=O)CCc1cn(CCCCCCC(=O)O)nn1`, the inhibition came out at 6%.

In the case of `Nc1ccc(-c2ccccc2)cc1NC(=O)c1cn(CCC23CC4CC(CC(C4)C2)C3)nn1`, the inhibition came out at 0%.

Regarding `Nc1ccc(-c2ccsc2)cc1NC(=O)c1cn(-c2ccc(O)cc2)nn1`, the inhibition was 2%.

Turning to `Nc1ccc(-c2cccs2)cc1NC(=O)c1cccc(-c2cn(-c3ccc(I)cc3)nn2)c1`, the inhibition is 7%.

Take `Nc1ccc(-c2ccc(F)cc2)cc1NC(=O)CCc1cn(Cc2ccc3ccccc3n2)nn1`: the inhibition came to 26%.

For the molecule `Nc1ccc(-c2cccs2)cc1NC(=O)CCc1cn(CCCCCCC(=O)O)nn1`, the inhibition was 9%.

`Nc1ccc(-c2ccc(F)cc2)cc1NC(=O)c1cn(CCN2CCOCC2)nn1`: the inhibition worked out at 10%.

Turning to `Nc1ccc(-c2ccc(F)cc2)cc1NC(=O)CCc1cn(CCc2ccccn2)nn1`, the inhibition stood at 18%.

`Nc1ccc(-c2cccs2)cc1NC(=O)c1cn(CCc2cccc(F)c2)nn1`: the inhibition was 0%.

For the molecule `Nc1ccc(-c2ccc(F)cc2)cc1NC(=O)c1cn(CCc2ccccc2C(F)(F)F)nn1`, the inhibition worked out at 0%.

In the case of `Nc1ccc(-c2ccccc2)cc1NC(=O)CCc1cn(Cc2cc3ccccc3s2)nn1`, the inhibition turned out to be 0%.

On to `COc1ccccc1CCn1cc(-c2cccc(C(=O)Nc3cc(-c4cccs4)ccc3N)c2)nn1`, for which the inhibition was 3%.

For `CCc1ccc(Cn2cc(C(=O)Nc3cc(-c4ccccc4)ccc3N)nn2)cc1`, the inhibition was 0%.

`Nc1ccc(-c2ccccc2)cc1NC(=O)CCc1cn(Cc2cccc(C(=O)O)c2)nn1`: the inhibition stood at 0%.

Consider `Nc1ccc(-c2ccc(F)cc2)cc1NC(=O)c1cn(CCc2ccc(C(=O)O)cc2)nn1`, for which the inhibition turned out to be 31%.

Regarding `Nc1ccc(-c2ccsc2)cc1NC(=O)c1cn(CCN2CCc3ccccc3C2)nn1`, the inhibition was found to be 18%.

For the molecule `Nc1ccc(-c2ccccc2)cc1NC(=O)c1cn(Cc2cccc3ccccc23)nn1`, the inhibition came out at 2%.

Turning to `Nc1ccc(-c2cccnc2)cc1NC(=O)CCc1cn(CCN2CCc3ccccc3C2)nn1`, the inhibition came to 5%.

In the case of `Nc1ccc(-c2cccs2)cc1NC(=O)c1ccc(-c2cn(CCc3ccc(C(F)(F)F)cc3)nn2)cc1`, the inhibition was 0%.

On to `COc1ccc(-n2cc(C(=O)Nc3cc(-c4ccsc4)ccc3N)nn2)cc1`, for which the inhibition was determined as 22%.

`Nc1ccc(-c2cccs2)cc1NC(=O)c1cn(Cc2cccc3ccccc23)nn1`: the inhibition was found to be 13%.

As to `Nc1ccc(-c2cccs2)cc1NC(=O)c1ccc(-c2cn(CCN3CCc4ccccc4C3)nn2)cc1`, the inhibition is 0%.

With `Nc1ccc(-c2ccsc2)cc1NC(=O)c1cn(CCCCC(=O)O)nn1`, the inhibition was found to be 0%.

As to `COc1ccccc1CCn1cc(-c2ccc(C(=O)Nc3cc(-c4cccs4)ccc3N)s2)nn1`, the inhibition was found to be 20%.

`Nc1ccc(-c2ccccc2)cc1NC(=O)c1cn(CCc2c[nH]c3ccccc23)nn1`: the inhibition was determined as 0%.

In the case of `COc1ccc(Cn2cc(C(=O)Nc3cc(-c4ccsc4)ccc3N)nn2)cc1`, the inhibition was determined as 25%.

On to `Nc1ccc(-c2cccs2)cc1NC(=O)c1ccc(-c2cn(CCCCCC(=O)O)nn2)s1`, for which the inhibition came out at 54%.

For `Nc1ccc(-n2cc(C(=O)Nc3cc(-c4ccsc4)ccc3N)nn2)cc1`, the inhibition came out at 31%.

Consider `Nc1ccc(-c2cccs2)cc1NC(=O)c1cn(Cc2ccc(Oc3ccccc3)cc2)nn1`, for which the inhibition was 0%.

Turning to `Nc1ccc(-c2ccc(F)cc2)cc1NC(=O)c1cn(Cc2cccc(-c3ccccc3)c2)nn1`, the inhibition amounted to 0%.

Regarding `Nc1ccc(-c2cccnc2)cc1NC(=O)CCc1cn(Cc2ccc3ccccc3c2)nn1`, the inhibition was 19%.

For the molecule `Nc1ccc(-c2cccnc2)cc1NC(=O)CCc1cn(CCCCCCCC(=O)O)nn1`, the inhibition is 0%.

Take `Nc1ccc(-c2cccs2)cc1NC(=O)c1cccc(-c2cn(CCCc3ccccc3)nn2)c1`: the inhibition amounted to 4%.

Turning to `COc1ccc(Cn2cc(CCC(=O)Nc3cc(-c4cccs4)ccc3N)nn2)cc1`, the inhibition was 10%.

For `Nc1ccc(-c2cccs2)cc1NC(=O)c1ccc(-c2cn(CCc3ccsc3)nn2)cc1`, the inhibition turned out to be 26%.

With `Nc1ccc(-c2ccccc2)cc1NC(=O)c1cn(CCCc2ccccc2)nn1`, the inhibition is 6%.

For the molecule `Nc1ccc(-c2ccsc2)cc1NC(=O)c1cn(Cc2cccc(C(=O)O)c2)nn1`, the inhibition was determined as 0%.

With `Nc1ccc(-c2ccccc2)cc1NC(=O)c1cn(Cc2ccc3ccccc3c2)nn1`, the inhibition stood at 1%.

`Nc1ccc(-c2ccccc2)cc1NC(=O)CCc1cn(CC2CCCCC2)nn1`: the inhibition was 0%.

With `Nc1ccc(-c2cccs2)cc1NC(=O)c1cccc(-c2cn(CCCCCc3ccccc3)nn2)c1`, the inhibition came to 0%.

Regarding `Nc1ccc(-c2ccsc2)cc1NC(=O)CCc1cn(CC(=O)c2ccccc2)nn1`, the inhibition is 12%.

On to `Nc1ccc(-c2cccs2)cc1NC(=O)c1cn(Cc2cc3ccccc3s2)nn1`, for which the inhibition worked out at 8%.

Regarding `Nc1ccc(-c2ccsc2)cc1NC(=O)CCc1cn(CCc2ccsc2)nn1`, the inhibition was found to be 19%.

Consider `COc1ccc(-n2cc(CCC(=O)Nc3cc(-c4ccc(F)cc4)ccc3N)nn2)cc1`, for which the inhibition was determined as 10%.

As for `Nc1ccc(-c2ccccc2)cc1NC(=O)c1cn(Cc2ccc(Oc3ccccc3)cc2)nn1`, the inhibition was found to be 0%.

As to `Nc1ccc(-c2ccc(F)cc2)cc1NC(=O)c1cn(CCCCCc2ccccc2)nn1`, the inhibition turned out to be 1%.

`Nc1ccc(-c2ccc(F)cc2)cc1NC(=O)c1cn(CC(=O)c2ccccc2)nn1`: the inhibition is 6%.

As to `Nc1ccc(-c2cccs2)cc1NC(=O)c1ccc(-c2cn(CCc3ccccc3C(F)(F)F)nn2)s1`, the inhibition was 0%.

Regarding `Nc1ccc(-c2ccc(F)cc2)cc1NC(=O)c1cn(Cc2nc3ccccc3[nH]2)nn1`, the inhibition came out at 37%.

As for `Nc1ccc(-c2cccnc2)cc1NC(=O)CCc1cn(CCc2cccc([N+](=O)[O-])c2)nn1`, the inhibition is 15%.
